Assays:
Format in all cases: in vivo
[1] = test system: brown planthopper (Nilaparvata lugens); test: Nilaparvata lugens spray test; conditions: 96 h, after 4 days; for mortality at 100 g/ha: application rate 100 g/ha; for mortality at 500 g/ha: application rate 500 g/ha
Method: Nilaparvata lugens—Spray Test
Solvent: 78.0 parts by weight of acetone • • 1.5 parts by weight of dimethylformamide
(§1) Emulsifier: alkylarylpolyglycol ether
(§2) To produce a suitable preparation of active compound, 1 part by weight of active compound is mixed with the stated amount of solvents and is diluted with water, containing an emulsifier concentration of 1000 ppm, to the desired concentration. Further test concentrations are prepared by dilution with emulsifier containing water.
Rice plants (Oryza sativa) are sprayed with a preparation of the active ingredient of the desired concentration and the plants are infested with the brown planthopper (Nilaparvata lugens).
After 4 days mortality in % is determined. 100% means all planthoppers have been killed and 0% means none of the planthoppers have been killed.

[2] = test system: southern root-knot nematode (Meloidogyne incognita); test: Meloidogyne incognita test; conditions: 336 h, application rate 20 ppm, after 14 days, read-out: nematicidal activity (based on gall formation)
Method: Meloidoyne incognita—Test
Solvent: 125.0 parts by weight of acetone
To produce a suitable preparation of active compound, 1 part by weight of active compound is mixed with the stated amount of solvent, and the concentrate is diluted with water to the desired concentration.
Vessels are filled with sand, a solution of the active ingredient, a suspension containing eggs and larvae of the southern root-knot nematode (Meloidogyne incognita) and salad seeds. The salad seeds germinate and the seedlings grow. Galls develop in the roots.
After 14 days the nematicidal activity is determined based on the percentage of gall formation. 100% means no galls were found and 0% means the number of galls found on the roots of the treated plants was equal to that in untreated control plants.

[3] = test system: two spotted spidermite (Tetranychus urticae); test: Tetranychus urticae spray test OP-resistant; conditions: 144 h, application rate 100 g/ha, after 6 days
Method: Tetranychus urticae—Spray Test OP-Resistant
Solvent: 78.0 parts by weight acetone • 1.5 parts by weight dimethylformamide
as §1, §2
French bean (Phaseolus vulgaris) leaf disks infected with all instars of the two spotted spidermite (Tetranychus urticae), are sprayed with a preparation of the active ingredient of the desired concentration.
After 6 days mortality in % is determined. 100% means all spider mites have been killed and 0% means none of the spider mites have been killed.

Row | Structure (SMILES) | mortality at 100 g/ha [1] [%] | mortality at 500 g/ha [1] [%] | other results
1 | CC(NC(=O)c1cc(C(F)(F)F)cc(S(C)(=O)=O)c1)c1nc(Cl)nn1-c1ncccn1 (stereo not drawn) [I-30] | 100 | – | –
2 | C[C@H](NC(=O)c1cc(C#N)cc([S+](C)[O-])c1)c1ncnn1-c1ccc(C#N)cn1 (stereo partly drawn) [II-12] | 100 | 100 | –
3 | C[C@H](NC(=O)c1cc(C(F)(F)F)cc(S(C)(=O)=O)c1)c1ncnn1-c1ncccn1 [II-13] | 100 | 100 | –
4 | C[C@H](NC(=O)c1cc(OC(F)(F)F)cc(C2CC2)c1)c1ncnn1-c1ccccn1 [II-22] | – | 90 | pest or weed control at 20 ppm [2]: 90%
5 | Cc1nc([C@H](C)NC(=O)c2cc(C(F)(F)F)n(C)n2)n(-c2ncccn2)n1 [II-25] | – | 90 | –
6 | C[C@H](NC(=O)c1cc(C2CC2)cc(C(F)(F)F)c1)c1ncnn1-c1ccc(C#N)cn1 [II-26] | – | – | mortality at 100 g/ha [3]: 90%
7 | C[C@H](NC(=O)c1cc(Cl)cc(S(=O)(=O)C(F)F)c1)c1ncnn1-c1ncccn1 [II-34] | 100 | 100 | –
8 | C[C@H](NC(=O)c1cc(C(F)(F)F)cc(C2(C#N)CC2)c1)c1ncnn1-c1ccc(C#N)cn1 [II-47] | – | – | mortality at 100 g/ha [3]: 90%
9 | Cc1nc([C@H](C)NC(=O)c2cc(C(F)(F)F)cc(C3(C#N)CC3)c2)n(-c2ccc(C#N)cn2)n1 [II-49] | 100 | – | –
10 | Cc1nc([C@H](C)NC(=O)c2cc(C(F)(F)F)cc(S(C)(=O)=O)c2)n(-c2ccc(C#N)cn2)n1 [II-52] | 100 | – | –
11 | C[C@H](NC(=O)c1cc(C#N)cc(C2CC2)c1)c1ncnn1-c1ncccn1 [II-54] | 100 | – | –

From patent US20260206761A1, “HETEROARYL-TRIAZOLE COMPOUNDS AS PESTICIDES” (Bayer Aktiengesellschaft, priority 2019, published 2026)
